Data: US12637461B2, “Compounds for the activation of AMPK” (PFIZER INC., priority 2022, dated 2026)

Molecular target: T1, human AMPK α2β2γ3 (Homo sapiens, UniProt O43741+P54646+Q9UGI9)
T1 construct: expressed in transfected cells; host or cells: HEK293AD cells, MaxCyte bulk electroporation
Experiment: Primary cellular assay: γ3 associated phospho-Thr172 AMPK detection (custom pAMPK Surefire AlphaLISA) in α2β2γ3 bulk transiently transfected HEK293 cells
Format: cell-based
Settings: activation of human AMPK α2β2γ3 (γ3 pThr172 AMPK signal) in transiently transfected HEK293 cells, 20 minutes compound incubation; for Emax: 20 min, read-out: Assay GMean Asy. Max (%); for EC50: geometric mean EC50, read-out: Assay GMean EC50
In short: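 Transiently co-transfected (α2/β2/γ3 plasmids, electroporation) HEK293AD cells, plated 2 days in low-glucose DMEM+10% FBS, treated 20 min with compounds (11-point half-log dilutions). Lysates read by modified AlphaLISA capturing γ3 with pThr172 antibody detection. % effect relative to 30 μM HPE and DMSO; EC50 and Emax from curve fit.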

[1] = geometric mean of the asymptotic max

T1 sequence (P54646 whole entry): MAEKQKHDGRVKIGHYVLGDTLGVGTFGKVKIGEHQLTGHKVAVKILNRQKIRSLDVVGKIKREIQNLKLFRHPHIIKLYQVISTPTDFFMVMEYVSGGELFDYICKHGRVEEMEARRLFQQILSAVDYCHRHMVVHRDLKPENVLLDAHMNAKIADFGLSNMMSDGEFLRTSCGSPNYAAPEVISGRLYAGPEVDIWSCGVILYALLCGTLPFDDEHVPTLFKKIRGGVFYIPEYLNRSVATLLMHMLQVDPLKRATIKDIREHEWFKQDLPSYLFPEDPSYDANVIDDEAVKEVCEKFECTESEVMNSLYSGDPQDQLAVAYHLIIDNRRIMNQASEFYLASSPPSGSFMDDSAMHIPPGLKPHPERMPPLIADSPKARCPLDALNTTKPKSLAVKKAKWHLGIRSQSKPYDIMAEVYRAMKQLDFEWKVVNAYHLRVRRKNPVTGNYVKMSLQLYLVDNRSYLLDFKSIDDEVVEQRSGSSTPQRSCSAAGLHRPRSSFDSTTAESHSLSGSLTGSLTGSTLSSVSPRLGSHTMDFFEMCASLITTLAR
T1 sequence (O43741 whole entry): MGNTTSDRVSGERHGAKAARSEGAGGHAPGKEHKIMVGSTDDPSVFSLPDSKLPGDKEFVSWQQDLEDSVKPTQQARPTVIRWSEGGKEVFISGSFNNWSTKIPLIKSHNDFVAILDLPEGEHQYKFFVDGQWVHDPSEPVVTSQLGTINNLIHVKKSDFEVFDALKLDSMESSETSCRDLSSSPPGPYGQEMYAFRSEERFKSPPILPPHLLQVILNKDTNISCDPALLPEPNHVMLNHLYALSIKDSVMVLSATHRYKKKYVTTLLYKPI
T1 sequence (Q9UGI9 whole entry): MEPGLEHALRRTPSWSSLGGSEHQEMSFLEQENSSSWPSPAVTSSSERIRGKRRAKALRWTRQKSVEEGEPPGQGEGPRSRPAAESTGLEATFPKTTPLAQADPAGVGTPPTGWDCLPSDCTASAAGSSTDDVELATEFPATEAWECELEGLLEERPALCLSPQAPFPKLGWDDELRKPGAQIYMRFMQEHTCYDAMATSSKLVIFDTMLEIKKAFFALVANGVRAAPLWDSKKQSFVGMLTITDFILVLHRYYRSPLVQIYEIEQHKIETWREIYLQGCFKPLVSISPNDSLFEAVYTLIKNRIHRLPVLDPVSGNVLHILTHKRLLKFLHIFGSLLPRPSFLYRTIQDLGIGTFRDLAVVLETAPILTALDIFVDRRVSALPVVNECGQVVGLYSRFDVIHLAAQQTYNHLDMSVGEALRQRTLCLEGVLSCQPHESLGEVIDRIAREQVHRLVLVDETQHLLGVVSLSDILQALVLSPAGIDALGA

Row | Emax [1] [%] | EC50 [nM] | Assay GMean Asy. Max (%) [1] [%] | SMILES
1 | 79.2 | 165 | – | C[C@@H](O)c1ccc(N2C[C@](C)(c3cccc(Cl)c3F)c3c(cnc(NC4CN(C(=O)[C@@H]5C[C@@H]5F)C4)c3F)C2=O)nc1 [Example 18, (4R)-4-(3-Chloro-2-fluorophenyl)-5-fluoro-6-({1-[(1S,2S)-2-fluorocyclopropane-1-carbonyl]azetidin-3-yl}amino)-2-{5-[(1R)-1-hydroxyethyl]pyridin-2-yl}-4-methyl-3,4-dihydro-2,7-naphthyridin-1(2H)-one]
2 | 31.3 | 87.2 | – | C[C@]1(c2cccc(Cl)c2F)CN(c2ncccc2F)C(=O)c2cnc(NC3CN(C(N)=O)C3)c(F)c21 [Example 19, 3-{[(5R)-5-(3-Chloro-2-fluorophenyl)-4-fluoro-7-(3-fluoropyridin-2-yl)-5-methyl-8-oxo-5,6,7,8-tetrahydro-2,7-naphthyridin-3-yl]amino}azetidine-1-carboxamide]
3 | 43.1 | 23.9 | – | CNC(=O)N1CC(Nc2ncc3c(c2F)[C@@](C)(c2cccc(Cl)c2F)CN(c2ncccc2F)C3=O)C1 [Example 20, 3-{[(5R)-5-(3-Chloro-2-fluorophenyl)-4-fluoro-7-(3-fluoropyridin-2-yl)-5-methyl-8-oxo-5,6,7,8-tetrahydro-2,7-naphthyridin-3-yl]amino}-N-methylazetidine-1-carboxamide]
4 | 142 | 39.8 | – | Cn1cc(F)c(N2C[C@](C)(c3cccc(Cl)c3F)c3c(cnc(NC4CN(C(=O)N5C[C@@H]6C[C@H]5CO6)C4)c3F)C2=O)n1 [Example 21, (4R)-4-(3-chloro-2-fluorophenyl)-5-fluoro-2-(4-fluoro-1-methyl-1H-pyrazol-3-yl)-4-methyl-6-({1-[(1S,4S)-2-oxa-5-azabicyclo[2.2.1]heptane-5-carbonyl]azetidin-3-yl}amino)-3,4-dihydro-2,7-naphthyridin-1(2H)-one]
5 | 136 | 44.7 | – | C[C@]1(c2cccc(Cl)c2F)CN(c2ccc(CO)cn2)C(=O)c2cnc(NC3CN(C(=O)N4C[C@@H]5C[C@H]4CO5)C3)c(F)c21 [Example 22, (4R)-4-(3-Chloro-2-fluorophenyl)-5-fluoro-2-[5-(hydroxymethyl)pyridin-2-yl]-4-methyl-6-({1-[(1 S,4S)-2-oxa-5-azabicyclo[2.2.1]heptane-5-carbonyl]azetidin-3-yl}amino)-3,4-dihydro-2,7-naphthyridin-1(2H)-one]
6 | 104 | 906 | – | CC1(c2cccc(F)c2F)CN(c2ccccc2)C(=O)c2cnc(NC3CN(C(=O)CN4CCCC4)C3)nc21 (stereo not shown) [Example 33, 8-(2,3-Difluorophenyl)-8-methyl-6-phenyl-2-({1-[(pyrrolidin-1-γ1)acetyl]azetidin-3-yl}amino)-7,8-dihydropyrido[4,3-d]pyrimidin-5(6H)-one]
7 | – | 27.2 | 119 | Cn1cc(F)c(N2CC(C)(c3cccc(Cl)c3F)c3c(ccc(NC4CN(C5CCCNC5=O)C4)c3F)C2=O)n1 (stereo not shown) [Example 35, 4-(3-Chloro-2-fluorophenyl)-5-fluoro-2-(4-fluoro-1-methyl-1H-pyrazol-3-yl)-4-methyl-6-{[1-(2-oxopiperidin-3-γ1)azetidin-3-yl]amino}-3,4-dihydroisoquinolin-1(2H)-one]
8 | 96.5 | 149 | – | Cn1cc(F)c(N2CC(C)(c3cccc(Cl)c3F)c3c(ccc(NC4CN(C5CCCNC5=O)C4)c3F)C2=O)n1 (stereo not shown) [Example 36, 4-(3-Chloro-2-fluorophenyl)-5-fluoro-2-(4-fluoro-1-methyl-1H-pyrazol-3-yl)-4-methyl-6-{[1-(2-oxopiperidin-3-γ1)azetidin-3-yl]amino}-3,4-dihydroisoquinolin-1(2H)-one]
9 | 72.1 | 899 | – | C[C@]1(c2cccc(Cl)c2F)CN(c2n[nH]cc2F)C(=O)c2cnc(NC3CN(C(=O)[C@@H]4C[C@@H]4F)C3)c(F)c21 [Example 112, (4R)-4-(3-chloro-2-fluorophenyl)-5-fluoro-6-({1-[(1S,2S)-2-fluorocyclopropane-1-carbonyl]azetidin-3-yl}amino)-2-(4-fluoro-1H-pyrazol-3-yl)-4-methyl-3,4-dihydro-2,7-naphthyridin-1(2H)-one]
10 | 91.2 | 68.7 | – | Cn1cc(F)c(N2C[C@](C)(c3cccc(Cl)c3F)c3c(cnc(NC4CN(C(=O)[C@@H]5CC5(F)F)C4)c3F)C2=O)n1 [compound 39, (4R)-4-(3-chloro-2-fluorophenyl)-6-({1-[(1S)-2,2-difluorocyclopropane-1-carbonyl]azetidin-3-yl}amino)-5-fluoro-2-(4-fluoro-1-methyl-1H-pyrazol-3-yl)-4-methyl-3,4-dihydro-2,7-naphthyridin-1(2H)-one]
11 | 58.8 | 113 | – | C[C@@H](O)C(=O)N1CC(Nc2ncc3c(c2F)[C@@](C)(c2cccc(Cl)c2F)CN(c2nn(C)cc2F)C3=O)C1 [compound 40, (4R)-4-(3-chloro-2-fluorophenyl)-5-fluoro-2-(4-fluoro-1-methyl-1H-pyrazol-3-yl)-6-({1-[(2R)-2-hydroxypropanoyl]azetidin-3-yl}amino)-4-methyl-3,4-dihydro-2,7-naphthyridin-1(2H)-one]
12 | 80.2 | 120 | – | CN(C)CC(=O)N1CC(Nc2ncc3c(c2F)[C@@](C)(c2cccc(Cl)c2F)CN(c2nn(C)cc2F)C3=O)C1 [compound 41, (4R)-4-(3-chloro-2-fluorophenyl)-6-({1-[(dimethylamino)acetyl]azetidin-3-yl}amino)-5-fluoro-2-(4-fluoro-1-methyl-1H-pyrazol-3-yl)-4-methyl-3,4-dihydro-2,7-naphthyridin-1(2H)-one]
13 | 71.4 | 110 | – | C[C@]1(c2cccc(Cl)c2F)CN(c2ccc(CCO)cn2)C(=O)c2cnc(NC3CN(C(=O)[C@@H]4C[C@@H]4F)C3)c(F)c21 [compound 48, (4R)-4-(3-chloro-2-fluorophenyl)-5-fluoro-6-({1-[(1S,2S)-2-fluorocyclopropane-1-carbonyl]azetidin-3-yl}amino)-2-[5-(2-hydroxyethyl)pyridin-2-yl]-4-methyl-3,4-dihydro-2,7-naphthyridin-1(2H)-one]
14 | 77.3 | 63.9 | – | C[C@H](O)c1ccc(N2C[C@](C)(c3cccc(Cl)c3F)c3c(cnc(NC4CN(C(=O)[C@@H]5C[C@@H]5F)C4)c3F)C2=O)nc1 [compound 49, (4R)-4-(3-chloro-2-fluorophenyl)-5-fluoro-6-({1-[(1S,2S)-2-fluorocyclopropane-1-carbonyl]azetidin-3-yl}amino)-2-{5-[(1S)-1-hydroxyethyl]pyridin-2-yl}-4-methyl-3,4-dihydro-2,7-naphthyridin-1(2H)-one]
15 | 63.7 | 233 | – | C[C@]1(c2cccc(Cl)c2F)CN(c2ccc(OC(F)F)cn2)C(=O)c2cnc(NC3CN(C(=O)[C@@H]4C[C@@H]4F)C3)c(F)c21 [compound 50, (4R)-4-(3-chloro-2-fluorophenyl)-2-[5-(difluoromethoxy)pyridin-2-yl]-5-fluoro-6-({1-[(1S,2S)-2-fluorocyclopropane-1-carbonyl]azetidin-3-yl}amino)-4-methyl-3,4-dihydro-2,7-naphthyridin-1(2H)-one]
16 | 63.2 | 49.1 | – | CNc1ccc(N2C[C@](C)(c3cccc(Cl)c3F)c3c(cnc(NC4CN(C(=O)[C@@H]5C[C@@H]5F)C4)c3F)C2=O)nc1 [compound 51, (4R)-4-(3-chloro-2-fluorophenyl)-5-fluoro-6-({1-[(1S,2S)-2-fluorocyclopropane-1-carbonyl]azetidin-3-yl}amino)-4-methyl-2-[5-(methylamino)pyridin-2-yl]-3,4-dihydro-2,7-naphthyridin-1(2H)-one]
17 | 65.4 | 47.4 | – | C[C@]1(c2cccc(Cl)c2F)CN(c2ccc(CO)cn2)C(=O)c2cnc(NC3CN(C(=O)[C@@H]4C[C@@H]4F)C3)c(F)c21 [compound 52, (4R)-4-(3-chloro-2-fluorophenyl)-5-fluoro-6-({1-[(1S,2S)-2-fluorocyclopropane-1-carbonyl]azetidin-3-yl}amino)-2-[5-(hydroxymethyl)pyridin-2-yl]-4-methyl-3,4-dihydro-2,7-naphthyridin-1(2H)-one]
18 | 91 | 131 | – | C[C@]1(c2cccc(Cl)c2F)CN(c2ccc([C@@H]3COCCN3)cc2)C(=O)c2cnc(NC3CN(C(=O)[C@@H]4C[C@@H]4F)C3)c(F)c21 [compound 53, (4R)-4-(3-chloro-2-fluorophenyl)-5-fluoro-6-({1-[(1S,2S)-2-fluorocyclopropane-1-carbonyl]azetidin-3-yl}amino)-4-methyl-2-{4-[(3R)-morpholin-3-yl]phenyl}-3,4-dihydro-2,7-naphthyridin-1(2H)-one]
19 | 79.5 | 58.1 | – | Cn1ccc(N2C[C@](C)(c3cccc(Cl)c3F)c3c(cnc(NC4CN(C(=O)[C@@H]5C[C@@H]5F)C4)c3F)C2=O)n1 [compound 54, (4R)-4-(3-chloro-2-fluorophenyl)-5-fluoro-6-({1-[(1S,2S)-2-fluorocyclopropane-1-carbonyl]azetidin-3-yl}amino)-4-methyl-2-(1-methyl-1H-pyrazol-3-yl)-3,4-dihydro-2,7-naphthyridin-1(2H)-one]
20 | 30.9 | 24 | – | C[C@]1(c2cccc(Cl)c2F)CN(c2cc(OC(F)F)ccn2)C(=O)c2cnc(NC3CN(C(=O)[C@@H]4C[C@@H]4F)C3)c(F)c21 [compound 55, (4R)-4-(3-chloro-2-fluorophenyl)-2-[4-(difluoromethoxy)pyridin-2-yl]-5-fluoro-6-({1-[(1S,2S)-2-fluorocyclopropane-1-carbonyl]azetidin-3-yl}amino)-4-methyl-3,4-dihydro-2,7-naphthyridin-1(2H)-one]
